Measurements as given in paper PMC6880192, “Structure–Effect Relationships of Novel Semi-Synthetic Cannabinoid Derivatives” (Frontiers in Pharmacology, 2019).
Entries after “also recorded” stand apart in the source; their conditions may differ.

What was measured:
[1] = molecular target: T1, CB1-receptor (Homo sapiens, UniProt P21554); experiment: biochemical; format: binding; details: mean ± SEM, n = 3; radioligand [3H]-CP55940
T1 construct: expressed in transfected cells; host or cells: CHO cells, stably transfected with CB1 cDNA (from IMIBIC) and transiently with CRE-luc
T1 sequence (P21554 whole entry): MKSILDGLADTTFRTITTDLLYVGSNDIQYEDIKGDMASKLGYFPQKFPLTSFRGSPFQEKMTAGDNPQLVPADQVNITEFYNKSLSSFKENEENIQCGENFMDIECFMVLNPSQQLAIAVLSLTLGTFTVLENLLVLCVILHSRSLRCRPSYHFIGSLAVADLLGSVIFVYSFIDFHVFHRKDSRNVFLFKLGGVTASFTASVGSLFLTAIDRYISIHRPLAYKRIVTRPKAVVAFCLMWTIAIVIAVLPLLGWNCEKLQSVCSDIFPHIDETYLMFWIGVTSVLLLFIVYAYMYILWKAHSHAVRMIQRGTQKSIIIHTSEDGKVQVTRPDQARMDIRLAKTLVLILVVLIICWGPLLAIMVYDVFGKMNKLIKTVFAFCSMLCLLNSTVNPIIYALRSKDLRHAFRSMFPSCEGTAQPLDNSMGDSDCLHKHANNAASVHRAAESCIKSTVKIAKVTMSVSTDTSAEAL

[2] = molecular target: T2, CB2-receptor (Homo sapiens, UniProt P34972); experiment: Competition binding against [3H]-CP55940, CB2 membranes; details: for Ki: mean ± SEM, n = 3, radioligand [3H]-CP55940; for Selectivity CB2/CB1: ratio of Ki values
T2 construct: expressed in transfected cells; host or cells: CHO cells, stably transfected with CB2 cDNA (from IMIBIC) and transiently with CRE-luc
T2 sequence (P34972 whole entry): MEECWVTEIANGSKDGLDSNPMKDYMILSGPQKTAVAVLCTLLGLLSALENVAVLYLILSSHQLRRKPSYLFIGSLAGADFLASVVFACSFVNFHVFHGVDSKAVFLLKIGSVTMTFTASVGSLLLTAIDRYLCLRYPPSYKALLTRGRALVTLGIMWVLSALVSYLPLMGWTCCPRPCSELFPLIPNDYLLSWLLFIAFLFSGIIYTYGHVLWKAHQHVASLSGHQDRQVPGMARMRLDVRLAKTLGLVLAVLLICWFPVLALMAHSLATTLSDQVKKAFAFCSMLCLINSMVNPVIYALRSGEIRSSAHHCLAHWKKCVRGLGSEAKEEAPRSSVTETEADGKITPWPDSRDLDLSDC

[3] = molecular target: T1, CB1-receptor; experiment: cAMP-dependent luciferase assay in CHO-CB1-CRE-luc cells; format: cell-based; details: for CB1-receptor agonistic activity (fold induction of CRE-luc): 6 h stimulation with test compound; for Effect on CB1: CHO-CB1-CRE-luc, summary classification; for CB1-receptor antagonistic activity (fold induction of CRE-luc): 15 min pre-incubation, then 1 µmol/L WIN for 6 h
Procedure: (§1) Briefly, CHO cells were stably transfected with CB1- and CB2-receptor complementary DNAs (cDNAs) (kindly provided by IMIBIC). Around 10^5 transfected cells per milliliter were seeded in 24-well plates and transiently transfected with the plasmid CRE-luc using Roti-Fect (Carl Roth, Karlsruhe) following the manufacturer’s instructions. The cells were harvested after 24 h. Two transfected cell types resulted: CHO-CB1-CRE-luc and CHO-CB2-CRE-luc.
(§2) To test for agonistic activity at the CB1-receptor, the CHO-CB1-CRE-luc cells were stimulated for 6 h with increasing concentrations of the test compounds ([Bouaboula et al. 1997]). Forskolin (FSK), a strong CB-receptor-independent activator of adenylyl-cyclase was used at 10 µmol/L as a positive control. To investigate the antagonistic activity, the CHO-CB1-CRE-luc cells were pre-incubated for 15 min with the test compounds before stimulation for 6 h with 1 µmol/L WIN ([Zheng et al. 2013]). To investigate CB2-receptor agonistic activity, CHO-CB2-CRE-luc cells were pre-incubated for 15 min with increasing concentrations of the test substances and then for 6 h with 10 µmol/L FSK. WIN, a non-specific agonist at CB2-receptors, was used as a positive control. To confirm CB2-receptor agonistic activities of the test compounds, CHO-CB2-CRE-luc cells were pre-incubated with the specific CB2-receptor antagonist AM630 (1 µmol/L, 6-iodopravadoline; Cayman, distributed by Biozol, Hamburg) ([Ross et al. 1999]; [Zheng et al. 2013]) and then treated with increasing concentrations of the test substances.
(§3) After the stimulations and incubations, cells were lysed in a solution of 25 mmol Tris-phosphate (pH = 7.8), 8 mmol MgCl2, 1 mmol dithiothreitol (DTT), 1% Triton X-100, and 7% glycerol. The luciferase activity was measured with a Luciferase Assay Kit (Promega, Madison) according to the manufacturer’s instructions using an AutoLumat LB 9501 (Berthold Technologies, Bad Wildbad).

[4] = molecular target: T2, CB2-receptor; experiment: cAMP-dependent luciferase assay in CHO-CB2-CRE-luc cells; format: cell-based; details: for CB2-receptor agonistic activity (fold induction of CRE-luc): 15 min pre-incubation, then 10 µmol/L FSK for 6 h; for Effect on CB2: CHO-CB2-CRE-luc, summary classification; for CB2 agonistic effect compared with positive control WIN: same dose as 1 µmol/L WIN
Procedure: as §1, §2, §3

[5] = system: NF-κB; experiment: PMA-induced NF-κB-luc (KBF-luc) activation in Jurkat T-cells; format: cell-based; details: 0.5–25 µmol/L
Procedure: (§4) Jurkat T-cells (10^6 cells per milliliter) were transiently transfected with plasmids that contained an NF-κB-dependent (KBF-luc) or NFAT-dependent (NFAT-luc) promotors fused to the luciferase gene using Lipofectin (Life Technologies, Carlsbad) according to the manufacturer’s instructions ([Yano et al. 1987]; [Durand et al. 1988]). Twenty-four hours after transfection, cells were stimulated for 30 min with increasing doses of the test compounds or WIN as a control (Tocris, Bristol). Then PMA (50 ng/ml)—for NFAT-luc—plus ionomycin (0.5 µg/ml) (Sigma-Aldrich, St. Louis) was added, followed by a 6 h incubation period.
as §3

[6] = system: RAW264.7 macrophages; experiment: IL-17-induced polarization to pro-inflammatory M1 macrophages (qPCR); format: cell-based; details: RAW264.7, 0.5 to 10 µmol/L
Procedure: To assess the IL-17-induced polarization to pro-inflammatory M1 macrophages, RAW264.7 macrophages (10^6 cells per Petri dish) were incubated for 18 h with or without the test compounds containing 0.1% FBS. Subsequently, they were stimulated for 24 h with recombinant murine IL-17 (50 ng/ml; R&D Systems, Minneapolis). The CB2-receptor agonist JWH-133 was used as a positive control. Then, the messenger RNA (mRNA) was extracted using RNeasy Mini Kits (Qiagen, Hilden), and its purity determined by UV measurements at 260 and 280 nm. The induction of IL-6, IL-1β, CC-chemokine ligand 2 (CCL2), and tumor necrosis factor (TNF)-α mRNA was assessed as markers of pro-inflammatory activity using quantitative real-time polymerase chain reactions (qPCRs).
mRNA reverse transcription in cDNA was performed with iQ™ SYBR Green Supermix and the CFX96 real-time PCR system (Bio-Rad, Hercules). The amplification consisted of a 5 min denaturation at 95°C followed by 40 cycles each of 30 s at 95°C and 30 s at 55°C (annealing). Elongation for 30 s at 72°C came next, followed by a cycle for 10 s at 83°C and finally a cycle for 1 min at 72°C. Calculations were made according to the Livak method by quantifying glyceraldehyde 3-phosphate dehydrogenase (GAPDH) as a reference ([Schmittgen and Livak 2008]). The results are given as multiples of the reference gene ([…]).

[7] = system: NFAT; experiment: PMA/IO-induced NFAT-luc activation in Jurkat T-cells; format: cell-based; details: 0.5–25 µmol/L
Procedure: as §4, §3

[8] = system: primary human monocytes; experiment: Anti-inflammatory effect on LPS-treated monocytes (ELISA); format: cell-based
Procedure: Human peripheral blood monocytes were prepared from healthy donors who provided written informed consent at the local blood bank (University Hospital of Freiburg, Germany). Mononuclear cells were isolated by density gradient centrifugation according to standard protocol ([English and Andersen, 1974]) using lymphocyte separation medium, (PAN Biotech, Aidenbach). Cells were resuspended in RPMI-1640 medium (Invitrogen/Thermo Fisher Scientific, Karlsruhe) containing 10% human serum (Hexacell, Berlin). About 5 × 10^5 cells per milliliter were seeded in 24-well plates and incubated at 37°C and 5% CO2. The medium and the non-adherent cells were removed by washing with PBS and fresh RPMI medium, and 1% human serum was added to each well.
To test the anti-inflammatory effect of the test compounds, monocytes were incubated for 30 min with increasing doses of the test compounds. Then lipopolysaccharide (LPS) (10 ng/ml; Escherichia coli, Sigma-Aldrich, St. Louis) was added followed by a 24 h incubation period. The supernatants were removed and the levels of IL-1β, IL-6, IL-8, TNF-α, and prostaglandin E2 (PGE2) determined by enzyme-linked immunosorbent assay (ELISA) performed according to the manufacturer’s instructions (IL-1β from Hiss, Freiburg; IL-6, IL-8, and TNF-α from ImmunoTools, Friesoythe; and PGE2 from Cayman, distributed by Biozol, Hamburg). Stimulation with LPS alone was considered 100%.

[9] = system: RAW264.7 macrophages; experiment: MTT cytotoxicity assay; format: cell-based; details: RAW264.7, concentrations of 5 and 10 µmol/L
Description: Cytotoxicity tests were done on CHO cells, Jurkat T-cells, or RAW264.7 macrophages using the MTT assay (Sigma-Aldrich, St. Louis) and on primary human monocytes with the alamarBlue assay (Thermo Fisher Scientific, Karlsruhe).

## C=C(C)[C@@H]1CCC(C)=C[C@H]1c1c(O)cc(CCC)c(C(=O)OC2CCCCC2)c1O [CHCBDV (8), cyclohexyl cannabidivarinolate]
[1]
  Ki: 0.0132 ± 0.0009 µM
[2]
  Ki: 0.00462 ± 0.0005 µM
  Selectivity CB2/CB1: 2.9
[3]
  CB1-receptor agonistic activity (fold induction of CRE-luc): non-selective agonism
  Effect on CB1: Agonist
[4]
  CB2-receptor agonistic activity (fold induction of CRE-luc): non-selective agonism
  Effect on CB2: Agonist

## C=C(C)[C@@H]1CCC(C)=C[C@H]1c1c(O)cc(CCCCC)c(C(=O)OC2CCCCC2)c1O [CHC (4), cyclohexyl cannabidiolate]
[5]
  Inhibition of PMA-induced NF-κB activation: did not inhibit
[1]
  Ki: 0.87 ± 0.1 µM
[2]
  Ki: 0.51 ± 0.29 µM
  Selectivity CB2/CB1: 1.7
[6]
  IL-17-stimulated CCL2 mRNA expression: inhibited
  IL-17-stimulated IL-1β mRNA expression: inhibited
[7]
  Inhibition of PMA/IO-induced NFAT activation: did not inhibit
[3]
  CB1-receptor antagonistic activity (fold induction of CRE-luc): negative
  CB1-receptor agonistic activity (fold induction of CRE-luc): activate CB1-receptors
  Effect on CB1: Agonist
[4]
  Effect on CB2: Agonist
  CB2 agonistic effect compared with positive control WIN: as strong as the same dose of the positive control
[8]; LPS 10 ng/ml, 24 h
  Anti-inflammatory effects overall: only very weak anti-inflammatory effects
  LPS-induced IL-1β release: reduced
  LPS-induced IL-6 release: moderately and dose-dependently inhibited
  LPS-induced IL-8 release: moderately and dose-dependently inhibited
  LPS-induced TNF-α release: reduced

## C=C(C)[C@@H]1CCC(C)=C[C@H]1c1c(O)cc(CCC)c(C(=O)OCCO)c1O [2-HECBDV (7), 2-hydroxyethyl cannabidivarinolate]
[1]
  Ki: 5.65 µM
[2]
  Ki: 0.168 ± 0.0394 µM
  Selectivity CB2/CB1: 33.6
[3]
  Effect on CB1: Antagonist
[4]
  CB2-receptor agonistic activity (fold induction of CRE-luc): dose-dependent agonistic effects
  Effect on CB2: Agonist

## C=C(C)[C@@H]1CCC(C)=C[C@H]1c1c(O)cc(CCC)c(C(=O)OCCCCCC)c1O [HCBDV (9), n-hexyl cannabidivarinolate]
[1]
  Ki: 0.0083 ± 0.00069 µM
[2]
  Ki: 0.0099 ± 0.0025 µM
  Selectivity CB2/CB1: 0.8
[3]
  CB1-receptor agonistic activity (fold induction of CRE-luc): agonistic effects
  Effect on CB1: Agonist
[4]
  CB2-receptor agonistic activity (fold induction of CRE-luc): no effect
  Effect on CB2: No activity

## C=C(C)[C@@H]1CCC(C)=C[C@H]1c1c(O)cc(CCCCC)c(C(=O)OCC(O)CCC)c1O (some centres unmarked) [2-HPC (2), 2-hydroxypentyl cannabidiolate]
[9]
  Effect on cell viability: negative effect on cell viability
[7]
  Inhibition of PMA/IO-induced NFAT activation: significantly inhibited
[3]
  Effect on CB1: Antagonist
[4]
  Effect on CB2: Agonist
[8]; LPS 10 ng/ml, 24 h
  LPS-induced IL-6 release: significantly inhibited
  LPS-induced TNF-α release: significantly inhibited
[8]; dose of 1 µmol/L
  LPS-stimulated IL-8 synthesis: inhibited
  LPS-stimulated PGE2 synthesis: inhibited

## C=C(C)[C@@H]1CCC(C)=C[C@H]1c1c(O)cc(CCCCC)c(C(=O)OCC(O)CO)c1O (some centres unmarked) [GCBD (3), 2,3-dihydroxypropyl cannabidiolate]
[9]
  Effect on cell viability: negative effect on cell viability
[2]
  Selectivity CB2/CB1: 7.8
[7]
  Inhibition of PMA/IO-induced NFAT activation: significantly inhibited
[3]
  Effect on CB1: Antagonist
[4]
  CB2-receptor agonistic activity (fold induction of CRE-luc): dose-dependent agonistic effects
  Effect on CB2: Agonist
[8]; LPS 10 ng/ml, 24 h
  LPS-induced IL-1β release: significantly inhibited
  LPS-induced IL-6 release: significantly inhibited
  LPS-induced IL-8 release: costimulated
  LPS-induced TNF-α release: significantly inhibited

## C=C(C)[C@@H]1CCC(C)=C[C@H]1c1c(O)cc(CCCCC)c(C(=O)OCCNS(C)(=O)=O)c1O [NMSC (6), 2-(methylsulfonamido)ethyl cannabidiolate]
[5]
  Inhibition of PMA-induced NF-κB activation: inhibited
[1]
  Ki: 0.27 ± 0.04 µM
[2]; CB2 over CB1
  preference for the CB2-receptor: 22.5 fold
[2]
  Ki: 0.012 ± 0.001 µM
  Selectivity CB2/CB1: 22.5
[6]
  IL-17-stimulated CCL2 mRNA expression: reduced compared to the control at all concentrations
  IL-17-stimulated IL-1β mRNA expression: inhibited TNF-α and IL-1β only at low doses
  IL-17-stimulated IL-6 mRNA expression: co-stimulated
  IL-17-stimulated TNF-α mRNA expression: inhibited TNF-α and IL-1β only at low doses
[7]
  Inhibition of PMA/IO-induced NFAT activation: significantly inhibited
[3]
  CB1-receptor antagonistic activity (fold induction of CRE-luc): dose-dependent activity; also recorded: strongly CB1 antagonistic
  Effect on CB1: Antagonist
[4]
  Effect on CB2: Agonist
  CB2 agonistic effect compared with positive control WIN: similarly strongly agonistic
[8]; LPS 10 ng/ml, 24 h
  LPS-induced IL-1β release: enhanced
  LPS-induced IL-8 release: significantly reduced
  LPS-induced PGE2 release: significantly reduced
  LPS-induced TNF-α release: significantly reduced

## C=C(C)[C@@H]1CCC(C)=C[C@H]1c1c(O)cc(CCCCC)c(C(=O)OCCCCCC)c1O [HC (5), n-hexyl-cannabidiolate]
[5]
  Inhibition of PMA-induced NF-κB activation: only marginal
[1]
  Ki: 2.5 µM
[2]
  Ki: 0.067 ± 0.004 µM
  Selectivity CB2/CB1: 37.3
[6]
  IL-17-stimulated CCL2 mRNA expression: inhibited
  IL-17-stimulated IL-1β mRNA expression: inhibited
  IL-17-stimulated IL-6 mRNA expression: dose-dependent reduction
[7]
  Inhibition of PMA/IO-induced NFAT activation: no inhibition
[3]
  CB1-receptor antagonistic activity (fold induction of CRE-luc): dose-dependent activity
  Effect on CB1: Antagonist
[4]
  CB2-receptor agonistic activity (fold induction of CRE-luc): did not activate
  Effect on CB2: No activity
[8]; LPS 10 ng/ml, 24 h
  LPS-induced IL-1β release: inhibited at higher doses
  LPS-induced IL-6 release: dose-dependently inhibited
  LPS-induced IL-8 release: inhibited at higher doses
  LPS-induced TNF-α release: dose-dependently inhibited
